Literature values, collected in US7220859B2, “Bicyclic heterocycles as cannabinoid receptor modulators” (Bristol-Myers Squibb Company, priority 2005, dated 2007).

Details: 16 week trial period

Cc1c(C(=O)NN2CCCCC2)nn(-c2ccc(Cl)cc2Cl)c1-c1ccc(Cl)cc1 [SR-141716]
body weight in human subjects: dose-dependently reduced body weight
